We go through 10 molecules from patent US7078537B2, “Phenylalkyl diamine and amide analogs” (SK Corporation, priority 2001, dated 2006).

The target in one assay is T1, sigma-1 receptor (Cavia porcellus, UniProt Q60492).
T1 construct: their whole brains (without cerebellum) were rapidly removed and homogenized; from tissue; host or cells: guinea pig (male Hartley) whole brain without cerebellum, membrane homogenate
Kind of assay: Sigma-1 binding assay ([3H](+)-pentazocine). The following applies: inhibition % at 10 nM; guinea pig brain membranes, [3H](+)-pentazocine; Table II; read-out: Sigma 1 Inhib. %. As to the method: (§1) Sigma-1 and Sigma-2 Binding Assay Methods
(§2) Compounds of the present inventions were tested for selective binding to the sigma-1 receptor and sigma-2 receptor as modified from Chaki et al. Eur. J. Pharmacol. 1994, 251, R1. and Akunne et al., Neuropharmacology, 1997, 36(1), 51.
(§3) Tissue Homogenate Preparation for Sigma-1 Binding Assay and Sigma-2 Binding Assay
(§4) Male Hartley guinea pigs each weighing 300–400 g were used in sigma subtype binding assay. Guinea pigs were killed by decapitation and their whole brains (without cerebellum) were rapidly removed and homogenized in 25 volumes(W/V) of ice-cold 50 mM Tris-HCl buffer(pH 7.4 buffer for sigma-1 binding assay and pH 8.0 buffer for sigma-2 binding assay). The homogenate was centrifuged in 48,000×g for 10 min at 4° C. The supernatant was discarded and the resulting pellets were resuspended in the sane volume of buffer and recentrifuged as described above. The pellets were resuspended and washed twice more in the same manner as described above. The final pellets were resuspended in 10 volumes(W/V) of ice-cold 50 mM Tris-HCl buffer to enable distribution of 2 ml aliquot in microcentrifuge tube, which were used immediately or kept at −80° C. for no more than 1 month before use.
Sigma-1 Binding Assay ([^3H](+)pentazocine)
The sigma-1 selective binding assay was performed using [^3H](+)-pentazocine as the radioligand (2.4 nM final concentration unless otherwise specified) and approximately […] of guinea pig brain membranes in a final volume of […] of 50 mM TRISHCl, pH7.4. Non-specific binding was determined in the presence of […]. For the standard equilibrium assay, the mixtures were incubated for 2 hours at 25°, and rapidly filtered over Whatman GF/C glass fiber filters, followed by three 4.5 ml rinses with ice-cold incubation buffer. The filters were placed in counting vials and 4 ml scintillation solution. The vials were counted in a Beckman scintillation counter.
(§5) IC50 values for sigma-1 or -2 binding assay were calculated using KELL RADLIG v.6.0.5.

Another assay has as its target T2, sigma-2 receptor (Cavia porcellus, UniProt H0V073).
T2 construct: their whole brains (without cerebellum) were rapidly removed and homogenized; from tissue; host or cells: guinea pig (male Hartley) whole brain without cerebellum, membrane homogenate
T2 sequence (H0V073 1-176): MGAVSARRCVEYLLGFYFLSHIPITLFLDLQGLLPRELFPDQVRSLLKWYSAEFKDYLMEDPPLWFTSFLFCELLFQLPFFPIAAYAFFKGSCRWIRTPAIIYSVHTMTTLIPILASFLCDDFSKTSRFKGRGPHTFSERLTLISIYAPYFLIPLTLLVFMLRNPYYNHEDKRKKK
The experiment in a line: Sigma-2 binding assay ([3H]DTG in the presence of (+)-SKF10047). The following applies: inhibition % at 10 nM; guinea pig brain membranes, [3H]DTG; Table II; read-out: Sigma 2 Inhib. %. As to the method:
as §1, §2, §3, §4
Sigma-2 Binding Assay([^3H]DTG)
The Sigma-2 selective binding assay was performed using 3.6 nM[^3H]DTG as the radioligand in the presence of 200 nM (+)-SKF10047 to block the Sigma-1 sites, with […] of guinea pig brain membranes in a total volume of 0.5 ml of 50 mM TRIS-HCl, pH8.0. Non-specific binding was determined in the presence of […]. Incubation condition and other manipulations were as described above for sigma-1 binding assay.
as §5

T1 sequence (Q60492 whole entry): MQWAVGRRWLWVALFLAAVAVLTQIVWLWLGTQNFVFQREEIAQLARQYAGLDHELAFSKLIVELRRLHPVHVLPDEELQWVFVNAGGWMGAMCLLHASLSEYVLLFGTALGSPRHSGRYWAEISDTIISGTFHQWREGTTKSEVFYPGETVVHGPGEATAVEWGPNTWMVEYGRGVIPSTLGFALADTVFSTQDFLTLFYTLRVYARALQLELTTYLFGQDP

Consider `NC(Cc1ccc(Cl)cc1Cl)CN1CCCCCC1` (centres unmarked), for which the inhibition at 0.01 µM on sigma-1 receptor was determined as 73.2%; at sigma-2 receptor, 61%.
The matching figures for `CN(C=O)C(CCN1CCC(Cc2ccccc2)CC1)c1ccccc1` (centres unmarked): -2% and 26.4%.
As to `CN(C)C(CCN1CCC(Cc2ccccc2)CC1)c1ccccc1` (centres unmarked), the values for the inhibition at 0.01 µM at sigma-1 receptor and on sigma-2 receptor were 20.3% and 57.7%, respectively.
For `O=S(=O)(NC(CCN1CCC(Cc2ccccc2)CC1)c1ccccc1)c1ccccc1` (centres unmarked), in that order: 35.6% and 11.4%.
For `O=[N+]([O-])c1ccc(S(=O)(=O)NC(CCN2CCC(Cc3ccccc3)CC2)c2ccccc2)c([N+](=O)[O-])c1` (centres unmarked), in that order: 5.7% and 40.6%.
On to `O=[N+]([O-])c1cccc(S(=O)(=O)NC(CCN2CCC(Cc3ccccc3)CC2)c2ccccc2)c1` (centres unmarked), for which the inhibition at 0.01 µM was found to be 45.7% at sigma-1 receptor and 25.7% on sigma-2 receptor.
For `O=[N+]([O-])c1ccccc1S(=O)(=O)NC(CCN1CCC(Cc2ccccc2)CC1)c1ccccc1` (centres unmarked), in that order: 31.6% and 3.1%.
Turning to `O=C(NC(CCN1CCC(Cc2ccccc2)CC1)c1ccccc1)c1ccccc1` (centres unmarked), the values for the inhibition at 0.01 µM at sigma-1 receptor and at sigma-2 receptor were 44.3% and 5.2%, respectively.
For `NC(CCN1CCC(C(=O)c2ccccc2)CC1)c1ccccc1` (centres unmarked), in that order: 13.7% and 48.3%.
The matching figures for `NC(CCN1CCC(C(=O)c2ccc(F)cc2)CC1)c1ccccc1` (centres unmarked): -1.9% and 57.3%.
